Laboratory results reported in patent US20180368410A1, “MICROBIOCIDAL OXADIAZOLE DERIVATIVES” (SYNGENTA PARTICIPATIONS AG, priority 2015, published 2018).

Assays:
[1] = system: Uromyces viciae-Fabael; assay: Uromyces viciae-fabae / field bean / leaf disc preventative (faba-bean rust); type: in vivo, Uromyces viciae-fabae on field bean; conditions: foliar, 288 h, 100 ppm in the applied formulation, inoculated two hours after application, assessed 12 days after application, vs untreated control leaf discs, read-out: disease control
Description: (§1) Leaf disks or leaf segments of various plant species are cut from plants grown in a greenhouse. The cut leaf disks or segments are placed in multiwell plates (24-well format) onto water agar. The leaf disks are sprayed with a test solution before (preventative) or after (curative) inoculation. Compounds to be tested are prepared as DMSO solutions (max. 10 mg/ml) which are diluted to the appropriate concentration with 0.025% Tween20 just before spraying. The inoculated leaf disks or segments are incubated under defined conditions (temperature, relative humidity, light, etc.) according to the respective test system. A single evaluation of disease level is carried out 3 to 14 days after inoculation, depending on the pathosystem. Percent disease control relative to the untreated check leaf disks or segments is then calculated.
Field bean leaf discs are placed on water agar in multiwell plates (96-well format) and 10 μl of the formulated test compound diluted in acetone and a spreader pipetted onto the leaf disc. Two hours after application leaf discs are inoculated by spraying a spore suspension on the lower leaf surface. The leaf discs are incubated in a climate cabinet at 22° C. with 18 hour day and 70% relative humidity. The activity of a compound is assessed as percent disease control compared to untreated when an appropriate level of disease damage appears in untreated check leaf disks (12 days after application).
The following compounds at 100 ppm in the applied formulation give at least 80% disease control in this test when compared to untreated control leaf discs under the same conditions, which show extensive disease development.

[2] = system: Puccinia recondita f. Sp. Tritici; assay: Puccinia recondita f. sp. tritici / wheat / leaf disc preventative (brown rust); type: in vivo, Puccinia recondita f. sp. tritici on wheat cv. Kanzler; conditions: foliar, 200 ppm in the applied formulation, inoculated 1 day after application, assessed 7 to 9 days after application, vs untreated control leaf disks, read-out: disease control
How it was run: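 Wheat cv. Kanzler leaf segments on agar were sprayed with compound (DMSO stock diluted with 0.025% Tween20) 1 day before inoculation with spores. Segments were held at 19 °C, 75% rh, 12 h light/dark. Percent disease control versus untreated was scored 7–9 days after application.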

[3] = system: Glomerella Lacenarium (Colletotrichum lacenarium); assay: Glomerella lagenarium (Colletotrichum lagenarium) liquid culture / cucumber / preventative (anthracnose); type: cell-based; conditions: 20 ppm in the applied formulation, liquid culture in PDB, 24° C., inhibition of growth measured photometrically 3 to 4 days after application, vs untreated control, read-out: disease control
How it was run: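 Cryostored conidia mixed into potato dextrose broth and added to DMSO compound solution in microtiter plates. Incubated at 24 °C. Growth inhibition read photometrically 3–4 days after application as percent activity versus untreated check.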

[4] = system: Puccinia recondita f. Sp. Triticil; assay: Puccinia recondita f. sp. tritici / wheat / leaf disc curative (brown rust); type: in vivo, Puccinia recondita f. sp. tritici on wheat cv. Kanzler; conditions: foliar, 200 ppm in the applied formulation, applied 1 day after inoculation, assessed 6 to 8 days after application, vs untreated control leaf disks, read-out: disease control
How it was run: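 Curative test: wheat leaf segments cv. Kanzler on agar inoculated with spore suspension, kept dark at 19 °C/75% RH, then sprayed 1 day post-inoculation with compound diluted in water. Incubated at 19 °C, 75% RH, 12 h light/dark; percent disease control versus untreated scored 6–8 days after application.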

[5] = system: Phakopsora pachyrhizi; assay: Phakopsora pachyrhizi / soybean / leaf disc preventative (Asian soybean rust); type: in vivo, Phakopsora pachyrhizi on soybean; conditions: foliar, 200 ppm in the applied formulation, inoculated one day after application, assessed 12 to 14 days after application, vs untreated control leaf disks, read-out: disease control
Description: as §1
Soybean leaf disks are placed on water agar in multiwell plates (24-well format) and sprayed with the formulated test compound diluted in water. One day after application leaf discs are inoculated by spraying a spore suspension on the lower leaf surface. After an incubation period in a climate cabinet of 24-36 hours in darkness at 20° C. and 75% rh leaf disc are kept at 20° C. with 12 h light/day and 75% rh. The activity of a compound is assessed as percent disease control compared to untreated when an appropriate level of disease damage appears in untreated check leaf disks (12 to 14 days after application).
The following compounds at 200 ppm in the applied formulation give at least 80% disease control in this test when compared to untreated control leaf disks under the same conditions, which show extensive disease development.

CCC1(C(=O)NCc2ccc(-c3noc(C(F)(F)F)n3)cc2)C(C)C1(Cl)Cl (centres unmarked) [Compound 1.31, 2,2-dichloro-1-ethyl-3-methyl-N-[[4-[5-(trifluoromethyl)-1,2,4-oxadiazol-3-yl]phenyl]methyl] cyclopropanecarboxamide]
pest or weed control at 100 ppm [1]: ≥ 80%

O=C(CCc1ccc(Cl)cc1)NCc1ccc(-c2noc(C(F)(F)F)n2)cc1 [Compound 1.11, 3-(4-chlorophenyl)-N-[[4-[5-(trifluoromethyl)-1,2,4-oxadiazol-3-yl]phenyl]methyl] propanamide]
pest or weed control at 100 ppm [1]: ≥ 80%

O=C(NCc1ccc(-c2noc(C(F)(F)F)n2)cc1)c1ccc(Cl)cc1 [Compound 1.36, 4-chloro-N-[[4-[5-(trifluoromethyl)-1,2,4-oxadiazol-3-yl]phenyl]methyl]benzamide]
pest or weed control at 200 ppm [2]: ≥ 80% | inhibition of growth at 20 ppm [3]: ≥ 80% | pest or weed control at 100 ppm [1]: ≥ 80%

CCOc1ccc(C2(C(=O)NCc3ccc(-c4noc(C(F)(F)F)n4)cc3)CC2(F)F)cc1 (centres unmarked) [Compound 1.35, 1-(4-ethoxyphenyl)-2,2-difluoro-N-[[4-[5-(trifluoromethyl)-1,2,4-oxadiazol-3-yl]phenyl]methyl] cyclopropanecarboxamide]
pest or weed control at 100 ppm [1]: ≥ 80%

O=C(NCc1ccc(-c2noc(C(F)(F)F)n2)cc1)c1cccc(C(F)(F)F)c1 [Compound 1.9, 3-(trifluoromethyl)-N-[[4-[5-(trifluoromethyl)-1,2,4-oxadiazol-3-yl]phenyl]methyl]benzamide]
pest or weed control at 100 ppm [1]: ≥ 80%

CC1(C(=O)NCc2ccc(-c3noc(C(F)(F)F)n3)cc2F)CC1 [Compound 1.67, N-[[2-fluoro-4-[5-(trifluoromethyl)-1,2,4-oxadiazol-3-yl]phenyl]methyl]-1-methyl-cyclopropanecarboxamide]
pest or weed control at 200 ppm [2]: ≥ 80% | pest or weed control at 200 ppm [4]: ≥ 80% | pest or weed control at 200 ppm [5]: ≥ 80% | inhibition of growth at 20 ppm [3]: ≥ 80%

CC1(C(=O)NCc2ccc(-c3noc(C(F)(F)F)n3)c(F)c2F)CC1 [Compound 1.78, N-[[2,3-difluoro-4-[5-(trifluoromethyl)-1,2,4-oxadiazol-3-yl]phenyl]methyl]-1-methyl-cyclopropanecarboxamide]
pest or weed control at 200 ppm [2]: ≥ 80% | pest or weed control at 200 ppm [4]: ≥ 80% | pest or weed control at 200 ppm [5]: ≥ 80% | inhibition of growth at 20 ppm [3]: ≥ 80%

O=C(Cc1ccc(C(F)(F)F)cc1)NCc1ccc(-c2noc(C(F)(F)F)n2)cc1 [Compound 1.34, N-[[4-[5-(trifluoromethyl)-1,2,4-oxadiazol-3-yl]phenyl]methyl]-2-[4-(trifluoromethyl)phenyl] acetamide]
pest or weed control at 200 ppm [2]: ≥ 80% | pest or weed control at 100 ppm [1]: ≥ 80%

CC1CC1C(=O)NCc1ccc(-c2noc(C(F)(F)F)n2)cc1F (centres unmarked) [Compound 1.66, N-[[2-fluoro-4-[5-(trifluoromethyl)-1,2,4-oxadiazol-3-yl]phenyl]methyl]-2-methyl-cyclopropanecarboxamide]
pest or weed control at 200 ppm [2]: ≥ 80% | pest or weed control at 200 ppm [4]: ≥ 80% | pest or weed control at 200 ppm [5]: ≥ 80% | inhibition of growth at 20 ppm [3]: ≥ 80%

O=C(NCc1ccc(-c2noc(C(F)(F)F)n2)cc1)C1(c2ccc(Cl)cc2)CCC1 [Compound 1.13, 1-(4-chlorophenyl)-N-[[4-[5-(trifluoromethyl)-1,2,4-oxadiazol-3-yl]phenyl]methyl] cyclobutanecarboxamide]
pest or weed control at 200 ppm [2]: ≥ 80% | pest or weed control at 100 ppm [1]: ≥ 80%

O=C(CC1CC1)NCCc1ccc(-c2noc(C(F)(F)F)n2)cc1 [Compound 1.105, 2-cyclopropyl-N-[2-[4-[5-(trifluoromethyl)-1,2,4-oxadiazol-3-yl]phenyl]ethyl]acetamide]
pest or weed control at 200 ppm [2]: ≥ 80% | pest or weed control at 200 ppm [4]: ≥ 80% | pest or weed control at 200 ppm [5]: ≥ 80% | inhibition of growth at 20 ppm [3]: ≥ 80%

O=C(NCc1ccc(-c2noc(C(F)(F)F)n2)cc1)C1CCC1 [Compound 1.22, N-[[4-[5-(trifluoromethyl)-1,2,4-oxadiazol-3-yl]phenyl]methyl] cyclobutanecarboxamide]
pest or weed control at 200 ppm [2]: ≥ 80% | pest or weed control at 200 ppm [4]: ≥ 80% | pest or weed control at 200 ppm [5]: ≥ 80% | inhibition of growth at 20 ppm [3]: ≥ 80%

CC1(C(=O)NCCc2ccc(-c3noc(C(F)(F)F)n3)cc2)COC1 [Compound 1.104, 3-methyl-N-[2-[4-[5-(trifluoromethyl)-1,2,4-oxadiazol-3-yl]phenyl]ethyl]oxetane-3-carboxamide]
pest or weed control at 200 ppm [2]: ≥ 80% | pest or weed control at 200 ppm [4]: ≥ 80% | pest or weed control at 200 ppm [5]: ≥ 80% | inhibition of growth at 20 ppm [3]: ≥ 80%

O=C(NCCc1ccc(-c2noc(C(F)(F)F)n2)cc1)C1CC1(F)F (centres unmarked) [Compound 1.98, 2,2-difluoro-N-[2-[4-[5-(trifluoromethyl)-1,2,4-oxadiazol-3-yl]phenyl]ethyl] cyclopropanecarboxamide]
pest or weed control at 200 ppm [2]: ≥ 80% | pest or weed control at 200 ppm [4]: ≥ 80% | pest or weed control at 200 ppm [5]: ≥ 80% | inhibition of growth at 20 ppm [3]: ≥ 80%

O=C(NCc1ccc(-c2noc(C(F)(F)F)n2)cc1)C1CCCC1 [Compound 1.16, N-[[4-[5-(trifluoromethyl)-1,2,4-oxadiazol-3-yl]phenyl]methyl] cyclopentanecarboxamide]
pest or weed control at 200 ppm [2]: ≥ 80% | pest or weed control at 200 ppm [4]: ≥ 80% | pest or weed control at 200 ppm [5]: ≥ 80% | inhibition of growth at 20 ppm [3]: ≥ 80%

O=C(Cc1ccccc1Cl)NCc1ccc(-c2noc(C(F)(F)F)n2)cc1 [Compound 1.12, 2-(2-chlorophenyl)-N-[[4-[5-(trifluoromethyl)-1,2,4-oxadiazol-3-yl]phenyl]methyl]acetamide]
pest or weed control at 200 ppm [2]: ≥ 80% | pest or weed control at 100 ppm [1]: ≥ 80%

CC1(C(=O)NCc2ccc(-c3noc(C(F)(F)F)n3)cc2)CCCCC1 [Compound 1.21, 1-methyl-N-[[4-[5-(trifluoromethyl)-1,2,4-oxadiazol-3-yl]phenyl]methyl] cyclohexanecarboxamide]
pest or weed control at 200 ppm [2]: ≥ 80% | pest or weed control at 200 ppm [4]: ≥ 80% | pest or weed control at 200 ppm [5]: ≥ 80% | inhibition of growth at 20 ppm [3]: ≥ 80%

O=C(NCc1ccc(-c2noc(C(F)(F)F)n2)cc1)c1ccc(Cl)cc1Cl [Compound 1.8, 2,4-dichloro-N-[[4-[5-(trifluoromethyl)-1,2,4-oxadiazol-3-yl]phenyl]methyl]benzamide]
pest or weed control at 100 ppm [1]: ≥ 80%

O=C(NCc1ccc(-c2noc(C(F)(F)F)n2)cc1F)C1CCCO1 (centres unmarked) [Compound 1.49, N-[[2-fluoro-4-[5-(trifluoromethyl)-1,2,4-oxadiazol-3-yl]phenyl]methyl]tetrahydrofuran-2-carboxamide]
pest or weed control at 200 ppm [2]: ≥ 80% | pest or weed control at 200 ppm [4]: ≥ 80% | pest or weed control at 200 ppm [5]: ≥ 80% | inhibition of growth at 20 ppm [3]: ≥ 80%

CC1(C(=O)NCc2ccc(-c3noc(C(F)(F)F)n3)c(F)c2)CC1 [Compound 1.65, N-[[3-fluoro-4-[5-(trifluoromethyl)-1,2,4-oxadiazol-3-yl]phenyl]methyl]-1-methyl-cyclopropanecarboxamide]
pest or weed control at 200 ppm [2]: ≥ 80% | pest or weed control at 200 ppm [4]: ≥ 80% | pest or weed control at 200 ppm [5]: ≥ 80% | inhibition of growth at 20 ppm [3]: ≥ 80%

O=C(NCc1ccc(-c2noc(C(F)(F)F)n2)c(F)c1F)C1CCC1 [Compound 1.75, N-[[2,3-difluoro-4-[5-(trifluoromethyl)-1,2,4-oxadiazol-3-yl]phenyl]methyl] cyclobutanecarboxamide]
pest or weed control at 200 ppm [2]: ≥ 80% | pest or weed control at 200 ppm [4]: ≥ 80% | pest or weed control at 200 ppm [5]: ≥ 80% | inhibition of growth at 20 ppm [3]: ≥ 80%
